Measured values from US20210045385A1, “PYRIDAZINONE-SUBSTITUTED KETOXIMES AS HERBICIDES” (FMC Corporation, priority 2018, published 2021).

Key:
Format in all cases: in vivo
[1] = system: foxtail, giant (giant foxtail, Setaria faberi); experiment: Test C preemergence, visual plant response rating
From the text: (§1) Seeds of plant species selected from barnyardgrass (Echinochloa crus-galli), kochia (Bassia scoparia), ragweed (common ragweed, Ambrosia artemisiifolia), Italian ryegrass (Lolium mutiflorum), foxtail, giant (giant foxtail, Setaria faberi), foxtail, green (green foxtail, Setaria viridis), and pigweed (Amaranthus retroflexus) were planted into a blend of loam soil and sand and treated preemergence with a directed soil spray using test chemicals formulated in anon-phytotoxic solvent mixture which included a surfactant.
(§2) At the same time, plants selected from these weed species and also wheat (Triticum aestivum), corn (Zea mays), blackgrass (Alopecurus myosuroides), and galium (catchweed bedstraw, Galium aparine) were planted in pots containing the same blend of loam soil and sand and treated with post emergence applications of test chemicals formulated in the same manner. Plants ranged in height from 2 to 10 cm and were in the one- to two-leaf stage for the postemergence treatment. Treated plants and untreated controls were maintained in a greenhouse for approximately 10 d, after which time all treated plants were compared to untreated controls and visually evaluated for injury. Plant response ratings, summarized in Table C, are based on a 0 to 100 scale where 0 is no effect and 100 is complete control. A dash (-)response means no test result.

[2] = system: pigweed (Amaranthus retroflexus); experiment: Test C preemergence, visual plant response rating
From the text: as §1, §2

kochia (Bassia scoparia) [3] = experiment: Test C preemergence, visual plant response rating
From the text: as §1, §2

[4] = system: Italian ryegrass (Lolium mutiflorum); experiment: Test C preemergence, visual plant response rating
From the text: as §1, §2

[5] = system: barnyardgrass (Echinochloa crus-galli); experiment: Test C preemergence, visual plant response rating
From the text: as §1, §2

[6] = system: foxtail, giant (giant foxtail, Setaria faberi); experiment: Test C postemergence, visual plant response rating
From the text: as §1, §2

[7] = system: ragweed (common ragweed, Ambrosia artemisiifolia); experiment: Test C postemergence, visual plant response rating
From the text: as §1, §2

[8] = system: pigweed (Amaranthus retroflexus); experiment: Test C postemergence, visual plant response rating
From the text: as §1, §2

[9] = system: blackgrass (Alopecurus myosuroides); experiment: Test C postemergence, visual plant response rating
From the text: as §1, §2

kochia (Bassia scoparia) [10] = experiment: Test C postemergence, visual plant response rating
From the text: as §1, §2

[11] = system: Italian ryegrass (Lolium mutiflorum); experiment: Test C postemergence, visual plant response rating
From the text: as §1, §2

[12] = system: galium (catchweed bedstraw, Galium aparine); experiment: Test C postemergence, visual plant response rating
From the text: as §1, §2

[13] = system: barnyardgrass (Echinochloa crus-galli); experiment: Test C postemergence, visual plant response rating
From the text: as §1, §2

[14] = system: wheat (Triticum aestivum); experiment: Test C postemergence, visual plant response rating
From the text: as §1, §2

corn (Zea mays) = experiment: Test C postemergence, visual plant response rating
From the text: as §1, §2

[15] = system: duck salad (Heteranthera limosa); experiment: Test D flooded paddy test, visual plant response rating; conditions: 250 g ai/ha, scale 0 to 100 (0 no effect, 100 complete control), 13 to 15 d
Protocol: (§3) Plant species in the flooded paddy test selected from rice (Oryza sativa), sedge umbrella (small-flower umbrella sedge, Cyperus difformis) duck salad (Heteranthera limosa), and barnyardgrass (Echinochloa crus-galli) were grown to the 2-leaf stage for testing. At time of treatment, test pots were flooded to 3 cm above the soil surface, treated by application of test compounds directly to the paddy water, and then maintained at that water depth for the duration of the test. Treated plants and controls were maintained in a greenhouse for 13 to 15 d, after which time all species were compared to controls and visually evaluated. Plant response ratings, summarized in Table D, are based on a scale of 0 to 100 where 0 is no effect and 100 is complete control. A dash (-) response means no test result.

[16] = system: sedge umbrella (small-flower umbrella sedge, Cyperus difformis); experiment: as above; conditions: 250 g ai/ha, scale 0 to 100 (0 no effect, 100 complete control), 13 to 15 d
Protocol: as §3

[17] = system: barnyardgrass (Echinochloa crus-galli); experiment: as above; conditions: 250 g ai/ha, scale 0 to 100 (0 no effect, 100 complete control), 13 to 15 d
Protocol: as §3

rice (Oryza sativa) = experiment: as above; conditions: 250 g ai/ha, scale 0 to 100 (0 no effect, 100 complete control), 13 to 15 d
Protocol: as §3

[18] = Test C, 31 g ai/ha, 0 is no effect, 100 is complete control
[19] = Test C, postemergence, 125 g ai/ha

SMILES	Foxtail, Giant plant response rating (0 to 100 scale) ([1]; 125 g ai/ha)	Foxtail, Giant plant response rating (0 to 100 scale) [1, 18]	Pigweed plant response rating (0 to 100 scale) ([2]; 125 g ai/ha)	Pigweed plant response rating (0 to 100 scale) [2, 18]	Kochia plant response rating (0 to 100 scale) (kochia (Bassia scoparia) [3]; 125 g ai/ha)	Kochia plant response rating (0 to 100 scale) (kochia (Bassia scoparia) [3]; [18])	Ryegrass, Italian plant response rating (0 to 100 scale) ([4]; 125 g ai/ha)	Ryegrass, Italian plant response rating (0 to 100 scale) [4, 18]	Barnyardgrass plant response rating (0 to 100 scale) ([5]; 125 g ai/ha)	Barnyardgrass plant response rating (0 to 100 scale) [5, 18]	Foxtail, Giant plant response rating (0 to 100 scale) ([6]; Postemergence, 31 g ai/ha)	Foxtail, Giant plant response rating (0 to 100 scale) [6, 19]	Ragweed plant response rating (0 to 100 scale) ([7]; Postemergence, 31 g ai/ha)	Ragweed plant response rating (0 to 100 scale) [7, 19]	Pigweed plant response rating (0 to 100 scale) ([8]; Postemergence, 31 g ai/ha)	Pigweed plant response rating (0 to 100 scale) [8, 19]	Blackgrass plant response rating (0 to 100 scale) ([9]; Postemergence, 31 g ai/ha)	Blackgrass plant response rating (0 to 100 scale) [9, 19]	Kochia plant response rating (0 to 100 scale) (kochia (Bassia scoparia) [10]; Postemergence, 31 g ai/ha)	Kochia plant response rating (0 to 100 scale) (kochia (Bassia scoparia) [10]; [19])	also measured
CCCCO/N=C(\c1cc(Cl)cc(Cl)c1Cl)c1c(O)c(C)nn(C)c1=O [Compound 183]	100	40	10	0	0	0	80	0	70	0	30	80	20	100	0	10	0	0	0	10	Ryegrass, Italian plant response rating (0 to 100 scale) ([11]; Postemergence, 31 g ai/ha): 40; Ryegrass, Italian plant response rating (0 to 100 scale) [11, 19]: 60; Galium plant response rating (0 to 100 scale) ([12]; Postemergence, 31 g ai/ha): 10; Galium plant response rating (0 to 100 scale) [12, 19]: 30; Barnyardgrass plant response rating (0 to 100 scale) ([13]; Postemergence, 31 g ai/ha): 0; Barnyardgrass plant response rating (0 to 100 scale) [13, 19]: 40; Wheat plant response rating (0 to 100 scale) ([14]; Postemergence, 31 g ai/ha): 0; Wheat plant response rating (0 to 100 scale) [14, 19]: 0; Corn plant response rating (0 to 100 scale) (corn (Zea mays); Postemergence, 31 g ai/ha): 0; Corn plant response rating (0 to 100 scale) (corn (Zea mays); [19]): 0; Plant response rating, Ducksalad (Flood) [15]: 0; Plant response rating, Sedge, Umbrella (Flood) [16]: 0; Plant response rating, Barnyardgrass (Flood) [17]: 0; Plant response rating, Rice (Flood) (rice (Oryza sativa)): 0
C#CCO/N=C(\c1cc(Cl)cc(Cl)c1Cl)c1c(O)c(C)nn(C)c1=O [Compound 184]	100	60	60	50	0	0	100	0	90	0	60	80	60	100	10	20	0	0	10	10	Ryegrass, Italian plant response rating (0 to 100 scale) ([11]; Postemergence, 31 g ai/ha): 0; Ryegrass, Italian plant response rating (0 to 100 scale) [11, 19]: 80; Galium plant response rating (0 to 100 scale) ([12]; Postemergence, 31 g ai/ha): 60; Galium plant response rating (0 to 100 scale) [12, 19]: 90; Barnyardgrass plant response rating (0 to 100 scale) ([13]; Postemergence, 31 g ai/ha): 50; Barnyardgrass plant response rating (0 to 100 scale) [13, 19]: 60; Wheat plant response rating (0 to 100 scale) ([14]; Postemergence, 31 g ai/ha): 0; Wheat plant response rating (0 to 100 scale) [14, 19]: 0; Corn plant response rating (0 to 100 scale) (corn (Zea mays); Postemergence, 31 g ai/ha): 0; Corn plant response rating (0 to 100 scale) (corn (Zea mays); [19]): 10; Plant response rating, Ducksalad (Flood) [15]: 0; Plant response rating, Sedge, Umbrella (Flood) [16]: 0; Plant response rating, Barnyardgrass (Flood) [17]: 0; Plant response rating, Rice (Flood) (rice (Oryza sativa)): 0
Cc1nn(C)c(=O)c(/C(=N/OC(C)C)c2cc(Cl)cc(Cl)c2Cl)c1O [Compound 185]	100	90	100	70	50	0	100	10	70	0	60	90	90	100	40	100	10	30	10	50	Ryegrass, Italian plant response rating (0 to 100 scale) ([11]; Postemergence, 31 g ai/ha): 70; Ryegrass, Italian plant response rating (0 to 100 scale) [11, 19]: 100; Galium plant response rating (0 to 100 scale) ([12]; Postemergence, 31 g ai/ha): 70; Galium plant response rating (0 to 100 scale) [12, 19]: 100; Barnyardgrass plant response rating (0 to 100 scale) ([13]; Postemergence, 31 g ai/ha): 10; Barnyardgrass plant response rating (0 to 100 scale) [13, 19]: 60; Wheat plant response rating (0 to 100 scale) ([14]; Postemergence, 31 g ai/ha): 50; Wheat plant response rating (0 to 100 scale) [14, 19]: 80; Corn plant response rating (0 to 100 scale) (corn (Zea mays); Postemergence, 31 g ai/ha): 0; Corn plant response rating (0 to 100 scale) (corn (Zea mays); [19]): 20; Plant response rating, Ducksalad (Flood) [15]: 85; Plant response rating, Sedge, Umbrella (Flood) [16]: 95; Plant response rating, Barnyardgrass (Flood) [17]: 45; Plant response rating, Rice (Flood) (rice (Oryza sativa)): 60
CCO/N=C(\c1cc(Cl)cc(Cl)c1Cl)c1c(O)c(C)nn(C)c1=O [Compound 186]	100	100	100	50	0	0	100	40	90	40	60	90	50	90	20	90	10	20	50	50	Ryegrass, Italian plant response rating (0 to 100 scale) ([11]; Postemergence, 31 g ai/ha): 80; Ryegrass, Italian plant response rating (0 to 100 scale) [11, 19]: 100; Galium plant response rating (0 to 100 scale) ([12]; Postemergence, 31 g ai/ha): 90; Galium plant response rating (0 to 100 scale) [12, 19]: 100; Barnyardgrass plant response rating (0 to 100 scale) ([13]; Postemergence, 31 g ai/ha): 30; Barnyardgrass plant response rating (0 to 100 scale) [13, 19]: 70; Wheat plant response rating (0 to 100 scale) ([14]; Postemergence, 31 g ai/ha): 20; Wheat plant response rating (0 to 100 scale) [14, 19]: 70; Corn plant response rating (0 to 100 scale) (corn (Zea mays); Postemergence, 31 g ai/ha): 0; Corn plant response rating (0 to 100 scale) (corn (Zea mays); [19]): 20; Plant response rating, Ducksalad (Flood) [15]: 0; Plant response rating, Sedge, Umbrella (Flood) [16]: 0; Plant response rating, Barnyardgrass (Flood) [17]: 0; Plant response rating, Rice (Flood) (rice (Oryza sativa)): 0
